From US10888549B2, “Pharmaceutical agents targeting cancer stem cells” (THE JOHNS HOPKINS UNIVERSITY, priority 2016, dated 2021) come the findings set out here.

For one data set, the system named is MIRLET7BHG promoter. Description: Bisulfite sequencing of let-7 host gene promoter. The data set is classed as cell-based, human. The note with it: bladder cancer cells. As to the method: Cell pellets were digested with 1% sodium dodecyl sulfate and 50 μg/mL proteinase K (Roche, Nutley, USA) at 48° C. overnight. Isolation of genomic DNA from cell lines was performed with the phenol-chloroform extraction protocol followed by ethanol precipitation. Bisulfite treatment was conducted using an EpiTect Bisulfite Kit (QIAGEN, Valencia, USA), and was subsequently amplified via PCR using primers as shown in the following table. PCR products were purified using the QIAquick Gel Extraction kit (Qiagen), and sequenced by Genewiz DNA sequencing service (Genewiz, South Plainfield, USA). The data were analyzed using the Sequence Scanner v1.0 software (Life technologies). A methylation frequency of ≥50% of total CpG sites within the amplified region was considered “methylation-positive”. For demethylation, cells (1×10^6/T-75 flask) were treated with […] of the demethylating agent 5-Aza-dC (Sigma) dissolved in 50% acetic acid or were mock-treated with phosphate buffered saline (PBS) including the same amount of acetic acid every 24 hours for 5 days. When combined with the histone deacetylase inhibitor TSA (Sigma), 300 nmol/L TSA was added to the medium for the final 24 hours.

A further data set relates to SOX2. Description: SOX2 expression by western blotting / flow cytometry. It is filed as cell-based, human. As to the method:
Whole cell lysates were extracted using RIPA buffer (Thermo Scientific) supplemented with 10 μL/mL Halt™ Protease Inhibitor Cocktail Kit (Life Technologies) and 30 μL/mL Halt™ Phosphatase Inhibitor Cocktail Kit (Life Technologies). The protein concentrations were determined using a Pierce™ BCA Protein Assay Kit (Life Technologies), and the protein were separated on NuPAGE® 4-12% Bis-Tris Gel (Life Technologies) according to the manufacturer's protocol. COX2 (D5H5), NANOG (D73G4), OCT4 (D7O5Z), CD133 (A3G6K), Snail (C15D3), ZEB1 (D80D3), Vimentin (D21H3), CDH2 (D4R1H), CDH1 (24E10), p-EGFR (D7A5), EGFR (D38B1), p-AKT (D9E), AKT (cat #, 9272), p-ERK (D13.14.4E), ERK (137F5), p-YAP1 (D9W2I), p-Src (cat #, 2101), Src (36D10), DNMT1 (D63A6), DNMT3A (D23G1), and DNMT3B (D7O7O) antibodies were obtained from Cell Signaling Technology (Danvers, Mass., USA), except for SOX2 (EPR3131; Abcam, Cambridge, USA), YAP1 (ab52771; Abcam), CD24 (cat #, AF5247-SP; R&D Systems, Minneapolis USA) and β-actin (A2228; Sigma-Aldrich). Secondary horseradish peroxidase (HRP)-conjugated antibodies were obtained from Cell Signaling Technology, and chemiluminescent detection of HRP-labeled antibodies was performed using Amersham ECL Prime Western Blotting Detection Reagent (GE Healthcare, Piscataway, USA). As loading control, β-actin was used.
For extracellular staining, cells (1×10^6/100 μL stain buffer) were incubated with PE-Vio770-conjugated anti-human CD133 (293C3; Miltenyi Biotec, Auburn, USA) or PE-conjugated anti-human CD24 antibody (cat #, 560991; BD Biosciences) for 30 min at 4° C. in dark. PE-Vio770-conjugated Isotype (cat #, 130-098-563; Miltenyi Biotec) and PE-conjugated IgG2a, κ Isotype (cat #, 555574; BD Biosciences) were used as control for CD133 and CD24 staining, respectively. Staining for intracellular SOX2 was carried out using the BD Cytofix/Cytoperm Fixation/Permeabilization Kit (BD Biosciences) according to manufacturer's protocol. The cells were incubated with Alexa Fluor 647-conjugated anti-SOX2 antibody (cat #, 560302; BD Biosciences) for 40 min at 4° C. in dark. Alexa Fluor 647-conjugated anti-IgG2a, κ Isotype (cat #, 558053; BD Biosciences) was used as control. Data were acquired on a BD FACSCalibur flow cytometer (BD Biosciences) using BD CellQuest Pro software (BD Biosciences) and analyzed with FlowJo software v10.1 (Tree Star, Ashland, USA).

Data set [1] in a line: Body weight of treated mice. It is filed as in vivo. The following applies: compared with control. As to the method:
For celecoxib and/or VP treatment, celecoxib (5 mg/kg) was administered via intraperitoneal (i.p.) injection once a day (17), and VP (50 mg/kg) was administered via i.p. every other day (18). EP4 antagonist ONO-AE3-208 (10 mg/kg) was administered via i.p. once a day (19). Control was applied with same volume (100 μL per injection) of 10% dimethyl sulphoxide in […] (Sigma-Aldrich). For GEM and CDDP (GC) treatment (i.p.), CDDP (6 mg/kg) was only applied after the first GEM (60 mg/kg) treatment on day 2, followed by three consecutive treatments of GEM on day 5, 8 and 11 (17). The next cycle was started on day 18, and the treatment was continued until tumor reached 2 cm in diameter. For erlotinib treatment, the mice were treated once a day, 6 days per week, by oral gavage with erlotinib (100 mg/kg) or control (PBS containing 0.5% methyl cellulose (Sigma-Aldrich) and 0.1% TWEEN 80) (20). Tumor size was measured at least every three days. […] To establish xenograft model with acquired resistance to erlotinib, erlotinib sensitive 5637 cells were injected subcutaneously into the both flanks of 4-5 week-old NSG mice, and the tumors were consecutively passaged from NSG mice treated with erlotinib and celecoxib until the development of refractory tumors. […]

For `Cc1ccc(-c2cc(C(F)(F)F)nn2-c2ccc(S(N)(=O)=O)cc2)cc1` [celecoxib, Celecoxib], the “promoter methylation of the let-7 host gene” value in the data set on MIRLET7BHG promoter is recorded as “demethylated”. The SOX2 expression entry in the data set with SOX2 (COX2 inhibitor added to erlotinib, basal-type cells) is “impaired”; in the data set with SOX2 (agent alone, bladder cancer cells) it was “repressed”. In addition, the “body weight loss of mice” value in data set [1] is given as “did not observe body weight loss”.
